In ChEMBL document CHEMBL1649121, “Giardia, Entamoeba, and Trichomonas enzymes activate metronidazole (nitroreductases) and inactivate metronidazole (nitroimidazole reductases)” (Antimicrob Agents Chemother, 2009):
Values after ≈ are worked out from the molar mass of the structure shown.

How the values were obtained:
Trichomonas vaginalis = assay: Activity of Trichomonas vaginalis NTR8 at 50 uM
Entamoeba histolytica [1] = assay: Activity of Entamoeba histolytica NTR2 at 50 uM
Escherichia coli [2] = assay: Antimicrobial activity against Escherichia coli JM109 transformed with Entamoeba histolytica NTR2 after 16 hrs; assay type: functional, organism-based; conditions: JM109, JM 109, 16 h
Escherichia coli [3] = assay: Antimicrobial activity against Escherichia coli JM109 transformed with Entamoeba histolytica nim1 after 16 hrs; assay type: functional, organism-based; conditions: JM109, JM 109, 16 h
Giardia duodenalis = assay: Activity of Giardia lamblia NTR at 50 uM
Entamoeba histolytica [4] = assay: Activity of Entamoeba histolytica NTR3 at 50 uM
Escherichia coli [5] = assay: Antimicrobial activity against Escherichia coli JM109 transformed with Trichomonas vaginalis nim1 after 16 hrs; assay type: functional, organism-based; conditions: JM109, JM 109, 16 h
Escherichia coli [6] = assay: Ratio of EC50 for Escherichia coli JM109 transformed with empty vector PQE30 to EC50 for Escherichia coli JM109 transformed with Entamoeba histolytica nim1; assay type: functional
Escherichia coli [7] = assay: Ratio of EC50 for Escherichia coli JM109 transformed with empty vector PQE30 to EC50 for Escherichia coli JM109 transformed with Entamoeba histolytica NTR1; assay type: functional
Escherichia coli [8] = assay: Ratio of EC50 for Escherichia coli JM109 transformed with empty vector PQE30 to EC50 for Escherichia coli JM109 transformed with Trichomonas vaginalis nim1; assay type: functional
Escherichia coli [9] = assay: Antimicrobial activity against Escherichia coli JM109 transformed with Entamoeba histolytica NTR1 after 16 hrs; assay type: functional, organism-based; conditions: JM109, JM 109, 16 h
Escherichia coli [10] = assay: Ratio of EC50 for Escherichia coli JM109 transformed with empty vector PQE30 to EC50 for Escherichia coli JM109 transformed with Entamoeba histolytica NTR2; assay type: functional
Entamoeba histolytica [11] = assay: Activity of Entamoeba histolytica NTR1 at 50 uM
Escherichia coli [12] = assay: Antimicrobial activity against Escherichia coli JM109 transformed with empty vector PQE30 after 16 hrs; assay type: functional, organism-based; conditions: JM109, JM 109, 16 h
Entamoeba histolytica [13] = assay: Activity of Entamoeba histolytica NIM1

Compound: Cc1ncc([N+](=O)[O-])n1CCO [METRONIDAZOLE]
- Km (Trichomonas vaginalis): 0.078 µM
- Vmax (Trichomonas vaginalis): 0.329 µmol/min
- Km (Entamoeba histolytica [1]): 0.081 µM
- Vmax (Entamoeba histolytica [1]): 0.031 µmol/min
- EC50 (Escherichia coli [2]): 8 µg/mL (≈ 46.7 µM)
- EC50 (Escherichia coli [3]): 750 µg/mL (≈ 4380 µM)
- Km (Giardia duodenalis): 0.206 µM
- Vmax (Giardia duodenalis): 0.347 µmol/min
- Km (Entamoeba histolytica [4]): 0.083 µM
- Vmax (Entamoeba histolytica [4]): 0.014 µmol/min
- EC50 (Escherichia coli [5]): 500 µg/mL (≈ 2920 µM)
- Ratio EC50 (Escherichia coli [6]): 30
- Ratio EC50 (Escherichia coli [7]): 3
- Ratio EC50 (Escherichia coli [8]): 20
- EC50 (Escherichia coli [9]): 7 µg/mL (≈ 40.9 µM)
- Ratio EC50 (Escherichia coli [10]): 3
- Km (Entamoeba histolytica [11]): 0.067 µM
- Vmax (Entamoeba histolytica [11]): 0.027 µmol/min
- EC50 (Escherichia coli [12]): 25 µg/mL (≈ 146 µM)
- Vmax (Entamoeba histolytica [13]): 0.057 µmol/min
